Experimental data taken from ChEMBL document CHEMBL4842378, “An Enantiodefined Conformationally Constrained Fatty Acid Mimetic and Potent Inhibitor of ToxT” (ACS Med Chem Lett, 2021).
Active and inactive are the calls of the source. The rule behind the calls is not given here.

Columns and labels:
[1] = biological target: T1, TCP pilus virulence regulatory protein (Vibrio cholerae serotype O1 (strain ATCC 39541 / Classical Ogawa 395 /O395)) (UniProt A5F384); assay: Inhibition of ToxT in delattoxT tcpA-linked LacZ reporter gene harboring Vibrio cholerae at 500 nM measured after 3.5 hrs by beta-galactosidase assay relative to control
T1 sequence (whole entry): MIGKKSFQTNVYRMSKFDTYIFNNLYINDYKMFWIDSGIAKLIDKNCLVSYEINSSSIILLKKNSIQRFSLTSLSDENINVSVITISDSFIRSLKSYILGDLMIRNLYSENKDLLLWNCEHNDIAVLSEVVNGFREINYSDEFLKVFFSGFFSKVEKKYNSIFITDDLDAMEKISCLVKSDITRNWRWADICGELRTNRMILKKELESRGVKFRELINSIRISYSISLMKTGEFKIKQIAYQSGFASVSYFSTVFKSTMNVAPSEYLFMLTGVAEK

[2] = biological target: T1, TCP pilus virulence regulatory protein (Vibrio cholerae serotype O1 (strain ATCC 39541 / Classical Ogawa 395 /O395)); assay: Inhibition of wild type ToxT in Vibrio cholerae El Tor strain C6706 at 500 nM measured after 3.5 hrs by beta-galactosidase assay relative to control
[3] = biological target: T1, TCP pilus virulence regulatory protein (Vibrio cholerae serotype O1 (strain ATCC 39541 / Classical Ogawa 395 /O395)); assay: Inhibition of ToxT in Vibrio cholerae at upto 5 uM measured after 3.5 hrs by beta-galactosidase assay relative to control; settings: dose microM <=5, time 3.5 hrs

Structure (SMILES) | inhibition [1] [%] | inhibition [2] | inhibition [3] [%]
Cc1cccc2c1C(CCC(=O)O)CCC2 (racemic) | 80 | 45% | –
CCCCC1=C2CCC[C@@]2(C)CC[C@@H]1CCC(=O)O | – | 80% | –
CCCCC1=C2CCC[C@]2(C)CC[C@H]1CCC(=O)O | – | 50% | –
CCCCC1=C2CCC[C@@]2(C)CC[C@@H]1CC/C=C/C(=O)O | – | 25% | –
CCCC1=C2CCC[C@@]2(C)CC[C@@H]1CCC(=O)O | – | 60% | –
CCCC1=C2CCC[C@@]2(C)CC[C@@H]1CC/C=C/C(=O)O | – | Active | –
O=C(O)CCCN1C(=O)c2cccc3cccc(c23)C1=O | – | – | 20
